Values after ≈ are worked out from the molar mass of the structure shown.
How the values were obtained:
Assay type in all cases: cell-based
Penicillium brevicaule = assay: Use Example B: minimum inhibitory concentration against fungi on malt extract agar; conditions: 2 weeks at 28° C., 60-70% relative atmospheric humidity
Experimental: (§1) The MIC is determined after 2 weeks of storage at 28° C. and 60-70% relative atmospheric humidity.

Aspergillus niger = assay: as above; conditions: 2 weeks at 28° C., 60-70% relative atmospheric humidity
Experimental: as §1

Chaetomium globusum = assay: as above; conditions: 2 weeks at 28° C., 60-70% relative atmospheric humidity
Experimental: as §1

Bacillus subtilis = assay: Use Example A: minimum inhibitory concentration against bacteria on Landy agar; conditions: 3 days at 28° C., 60-70% relative atmospheric humidity
Experimental: (§2) The MIC is determined after 3 days of storage at 28° C. and 60-70% relative atmospheric humidity.

Pseudomonas aeroginosa = assay: as above; conditions: 3 days at 28° C., 60-70% relative atmospheric humidity
Experimental: as §2

Row | SMILES | MIC (Penicillium brevicaule; Penicillium, 336 h) | MIC (Aspergillus niger; Aspergillus niger, 336 h) | MIC (Chaetomium globusum; Chaetomium, 336 h) | MIC (Bacillus subtilis; Bacillus subtilis, 72 h) | MIC (Pseudomonas aeroginosa; Pseudomonas, 72 h) | Minimum inhibitory concentration Penicillium brevicaule (Penicillium brevicaule) | Minimum inhibitory concentration Aspergillus niger (Aspergillus niger) | Minimum inhibitory concentration Chaetomium globusum (Chaetomium globusum) | Minimum inhibitory concentration Bacillus subtilis (Bacillus subtilis) | Minimum inhibitory concentration Pseudomonas aeroginosa (Pseudomonas aeroginosa)
1 | O=[N+]([O-])c1ccon1 [Example 1, 3-Nitroisoxazole] | 100 µg/mL (≈ 877 µM) | 100 µg/mL (≈ 877 µM) | 200 µg/mL (≈ 1750 µM) | < 40 µg/mL | 100 µg/mL (≈ 877 µM) |  |  |  |  | 
2 | CCCCc1cc([N+](=O)[O-])no1 [Example 4] |  |  |  |  |  | 400 ppm | >400 ppm | 400 ppm | <40 ppm | 200 ppm
3 | Cc1cc([N+](=O)[O-])no1 [Example 3] |  |  |  |  |  | 200 ppm | 200 ppm | 200 ppm | <40 ppm | 200 ppm
4 | CCOc1ccc(-c2cc([N+](=O)[O-])no2)cc1Cl [Example 5] |  |  |  |  |  | 200 ppm | 400 ppm | 100 ppm | <40 ppm | >400 ppm
5 | O=[N+]([O-])c1cc(-c2ccccc2)on1 [Example 2] |  |  |  |  |  | 200 ppm | 400 ppm | 200 ppm | <40 ppm | >400 ppm

— US6835842B2, “3-nitroisoxazoles and their use in the protection of materials” (Bayer Aktiengesellschaft, priority 2000, dated 2004)
